Test results: patent publication US9932637B2, “Genetic polymorphisms associated with cardiovascular disorders and drug response, methods of detection and uses thereof” (CELERA CORPORATION, priority 2003, dated 2018)

Tested on: patients with prior myocardial infarction (CARE study)
Experiment: CARE: association of SNPs with pravastatin treatment in cardiovascular events prevention (logistic regression, odds ratio pravastatin vs placebo by genotype; Table 8)
Format: in vivo, human
Details: for Fatal CHD/Definite Nonfatal MI, n/total (%) / Fatal/Nonfatal MI (def & prob), n/total (%) / MI (Fatal/Nonfatal), n/total (%) / Nonfatal MI (Probable/Definite), n/total (%) / Nonfatal MI (def & prob), n/total (%): GAPD hCV8921288, All Patients
From the text: In order to identify genetic markers associated with acute coronary events (e.g. MI, stroke, unstable angina, congestive heart failure, etc.) or response to statin treatment for the prevention of coronary events, samples from the Cholesterol and Recurrent Events (CARE) study (a randomized multicentral double-blinded trial on secondary prevention of acute coronary events with pravastatin) (Sacks et al., 1991, Am. J. Cardiol. 68: 1436-1446) were genotyped. A well-documented myocardial infarction (MI) was one of the enrollment criteria for entry into the CARE study. Patients were enrolled in the CARE trial from 80 participating study centers. […] Patients were randomized to receive either 40 mg of pravastatin once daily or a matching placebo. The primary endpoint of the trial was death from coronary heart disease and the median duration of follow-up was 5.0 years (range, 4.0 to 6.2 years). […] Secondary endpoints of other related cardiovascular or metabolic disease events, and changes in clinical variables were also recorded in pravastatin-treated and placebo groups. All individuals included in the study had signed a written informed consent form and the study protocol was approved by the respective Institutional Review Boards (IRBs).
For genotyping SNPs in CARE patient samples, DNA was extracted from blood samples using conventional DNA extraction methods such as the QIA-amp kit from Qiagen. Genotypes were obtained on an ABI PRISM® 7900HT Sequence Detection PCR system (Applied Biosystems, Foster City, Calif.) by kinetic allele-specific PCR, similar to the method described by Germer et al. (Germer S., Holland M. J., Higuchi R. 2000, Genome Res. 10: 258-266).
Statistical analysis for association of SNPs with pravastatin treatment in cardiovascular events prevention (Table 8) was carried out using an overall logistic regression model that included an intercept, a parameter for the effect of a genotype containing two rare alleles versus a genotype containing no rare alleles, a parameter for the effect of a genotype containing one rare allele versus a genotype containing no rare alleles, a parameter for the effect of use of pravastatin versus the use of placebo, and parameters for the interaction effects between SNP genotypes and pravastatin use. The test of the overall model is a chi-square test with two degrees of freedom for analyses containing all three genotypes, and one degree of freedom for analyses containing two genotypes.
Effect sizes were estimated through odds ratios (pravastatin group versus placebo) for carriers of each genotype (groups of 0, 1, and 2 minor allele carriers). The effect was considered to be significant if p-value for testing whether any of the interactions between SNP genotypes and pravastatin use were <0.05. […] Odds ratios less than one indicate that the specific SNP allele has a protective effect and odds ratios greater than one indicate that the specific SNP allele has an adverse effect.

[1] = ELN hCV1253630, All Patients, Fatal CHD/Definite Non-fatal MI
[2] = ELN hCV1253630, All Patients, Fatal/Non-fatal MI (def & prob)
[3] = ELN hCV1253630, All Patients, Hosp. for Cardiovascular Disease
[4] = ELN hCV1253630, All Patients, Non-fatal MI (def & prob)
[5] = ELN hCV1253630, All Patients, Total Cardiovascular Disease Events
[6] = ELN hCV1253630, All Patients, Total Coronary Heart Disease Events
[7] = FCGR2A hCV9077561, All Patients, 0 Rare Alleles, Prava arm
[8] = FCGR2A hCV9077561, All Patients, 1 Rare Allele, Prava arm
[9] = FCGR2A hCV9077561, All Patients, 2 Rare Alleles, Prava arm
[10] = HLA-DPA1 hCV15760070, All Patients, Coronary Artery Bypass or Revascularization
[11] = HLA-DPA1 hCV15760070, All Patients, Total Coronary Heart Disease Events

CC[C@H](C)C(=O)O[C@H]1C[C@H](O)C=C2C=C[C@H](C)[C@H](CC[C@@H](O)C[C@@H](O)CC(=O)O)[C@H]21 [pravastatin]
Fatal CHD/Definite Non-fatal MI, n/total (%) (ELN hCV1253630, All Patients, 2 Rare Alleles, Prava, n/total 29/245): (11.8%)
Non-fatal MI (def & prob), n/total (%) (ELN hCV1253630, All Patients, 2 Rare Alleles, Prava, n/total 30/245): (12.2%)
Fatal/Non-fatal MI (def & prob), n/total (%) (ELN hCV1253630, All Patients, 2 Rare Alleles, Prava, n/total 33/245): (13.5%)
Total Coronary Heart Disease Events, n/total (%) (ELN hCV1253630, All Patients, 2 Rare Alleles, Prava, n/total 88/245): (35.9%)
Hosp. for Cardiovascular Disease, n/total (%) (ELN hCV1253630, All Patients, 2 Rare Alleles, Prava, n/total 113/245): (46.1%)
Total Cardiovascular Disease Events, n/total (%) (ELN hCV1253630, All Patients, 2 Rare Alleles, Prava, n/total 115/245): (46.9%)
Prava vs. Placebo Odds Ratio, 0 Rare Alleles [1]: 0.50
Prava vs. Placebo Odds Ratio, 1 Rare Alleles [1]: 0.75
Prava vs. Placebo Odds Ratio, 2 Rare Alleles [1]: 1.41
Prava vs. Placebo Odds Ratio, 0 Rare Alleles [2]: 0.44
Prava vs. Placebo Odds Ratio, 1 Rare Alleles [2]: 0.68
Prava vs. Placebo Odds Ratio, 2 Rare Alleles [2]: 1.63
Prava vs. Placebo Odds Ratio, 0 Rare Alleles [3]: 0.63
Prava vs. Placebo Odds Ratio, 1 Rare Alleles [3]: 0.76
Prava vs. Placebo Odds Ratio, 2 Rare Alleles [3]: 1.15
Prava vs. Placebo Odds Ratio, 0 Rare Alleles [4]: 0.50
Prava vs. Placebo Odds Ratio, 1 Rare Alleles [4]: 0.67
Prava vs. Placebo Odds Ratio, 2 Rare Alleles [4]: 1.63
Prava vs. Placebo Odds Ratio, 0 Rare Alleles [5]: 0.63
Prava vs. Placebo Odds Ratio, 1 Rare Alleles [5]: 0.75
Prava vs. Placebo Odds Ratio, 2 Rare Alleles [5]: 1.11
Prava vs. Placebo Odds Ratio, 0 Rare Alleles [6]: 0.66
Prava vs. Placebo Odds Ratio, 1 Rare Alleles [6]: 0.73
Prava vs. Placebo Odds Ratio, 2 Rare Alleles [6]: 1.26
Catheterization, n/total (%) [7]: (11.6%)
Coronary Artery Bypass or Revascularization, n/total (%) [7]: (16.1%)
Catheterization, n/total (%) [8]: (11.2%)
Coronary Artery Bypass or Revascularization, n/total (%) [8]: (14.8%)
Catheterization, n/total (%) [9]: (6.8%)
Coronary Artery Bypass or Revascularization, n/total (%) [9]: (11.8%)
Fatal CHD/Definite Nonfatal MI, n/total (%) (0 Rare Alleles, Prava arm): (10.5%)
Fatal/Nonfatal MI (def & prob), n/total (%) (0 Rare Alleles, Prava arm): (10.6%)
MI (Fatal/Nonfatal), n/total (%) (0 Rare Alleles, Prava arm): (10.9%)
Nonfatal MI (Probable/Definite), n/total (%) (0 Rare Alleles, Prava arm): (10.3%)
Nonfatal MI (def & prob), n/total (%) (0 Rare Alleles, Prava arm): (9.9%)
Fatal CHD/Definite Nonfatal MI, n/total (%) (1 Rare Allele, Prava arm): (7.4%)
Fatal/Nonfatal MI (def & prob), n/total (%) (1 Rare Allele, Prava arm): (8.7%)
MI (Fatal/Nonfatal), n/total (%) (1 Rare Allele, Prava arm): (8.7%)
Nonfatal MI (Probable/Definite), n/total (%) (1 Rare Allele, Prava arm): (8.1%)
Nonfatal MI (def & prob), n/total (%) (1 Rare Allele, Prava arm): (7.6%)
Fatal CHD/Definite Nonfatal MI, n/total (%) (2 Rare Alleles, Prava arm): (8.1%)
Fatal/Nonfatal MI (def & prob), n/total (%) (2 Rare Alleles, Prava arm): (6.5%)
MI (Fatal/Nonfatal), n/total (%) (2 Rare Alleles, Prava arm): (6.5%)
Nonfatal MI (Probable/Definite), n/total (%) (2 Rare Alleles, Prava arm): (6.5%)
Nonfatal MI (def & prob), n/total (%) (2 Rare Alleles, Prava arm): (4.8%)
Coronary Artery Bypass or Revascularization, n/total (%) (HLA-DPA1 hCV15760070, All Patients, 0 Rare Alleles, Prava, n/total 143/1019): (14.0%)
Total Coronary Heart Disease Events, n/total (%) (HLA-DPA1 hCV15760070, All Patients, 0 Rare Alleles, Prava, n/total 285/1019): (28.0%)
Coronary Artery Bypass or Revascularization, n/total (%) (HLA-DPA1 hCV15760070, All Patients, 1 Rare Allele, Prava, n/total 67/443): (15.1%)
Total Coronary Heart Disease Events, n/total (%) (HLA-DPA1 hCV15760070, All Patients, 1 Rare Allele, Prava, n/total 136/443): (30.7%)
Coronary Artery Bypass or Revascularization, n/total (%) (HLA-DPA1 hCV15760070, All Patients, 2 Rare Alleles, Prava, n/total 9/52): (17.3%)
Total Coronary Heart Disease Events, n/total (%) (HLA-DPA1 hCV15760070, All Patients, 2 Rare Alleles, Prava, n/total 21/52): (40.4%)
Prava vs. Placebo Odds Ratio, 0 Rare Alleles [10]: 0.65
Prava vs. Placebo Odds Ratio, 1 Rare Alleles [10]: 0.71
Prava vs. Placebo Odds Ratio, 2 Rare Alleles [10]: 5.65
Prava vs. Placebo Odds Ratio, 0 Rare Alleles [11]: 0.69
Prava vs. Placebo Odds Ratio, 1 Rare Alleles [11]: 0.86
Prava vs. Placebo Odds Ratio, 2 Rare Alleles [11]: 2.48
Fatal/Non-fatal MI (def & prob), n/total (%) (HLA-DPB1 hCV8851085, All Patients, 0 Rare Alleles, Prava, n/total 82/919): (8.9%)
